Test results from patent US8609635B2, “Fused tricyclic silyl compounds and methods of use thereof for the treatment of viral diseases” (priority 2010, dated 2013).
Read-outs that look alike come from different tables or passages of the source.

What was measured:
HCV replicon gt1a_H77 = assay: Cell-based HCV replicon assay (TaqMan), genotype 1a (H77); settings: replicon 1a (H77), replicon RNA by TaqMan, day 3
Protocol: (§1) Measurement of inhibition by compounds of the present invention was performed using the HCV replicon system. Several different replicons encoding different HCV genotypes or mutations were used. In addition, potency measurements were made using different formats of the replicon assay, including different ways of measurements and different plating formats. See Jan M. Vrolijk et al., A replicons-based bioassay for the measurement of interferons in patients with chronic hepatitis C, 110 J. VIROLOGICAL METHODS 201 (2003); Steven S. Carroll et al., Inhibition of Hepatitis C Virus RNA Replication by 2′-Modified Nucleoside Analogs, 278(14) J. BIOLOGICAL […] 11979 (2003). However, the underlying principles are common to all of these determinations, and are outlined below.
(§2) Compounds of the present invention were assayed for cell-based anti-HCV activity using the following protocol. Replicon cells were seeded at 5000 cells/well in 96-well collagen I-coated Nunc plates in the presence of the test compound. Various concentrations of test compound, typically in 10 serial 2-fold dilutions, were added to the assay mixture, with the starting concentration ranging from 250 μM to 1 μM. The final concentration of DMSO was 0.5%, fetal bovine serum was 5%, in the assay media. Cells were harvested on day 3 by the addition of 1× cell lysis buffer (Ambion cat #8721). The replicon RNA level was measured using real time PCR (TaqMan® assay). The amplicon was located in 5B. The PCR primers were: 5B.2F, […] (SEQ. ID NO. 1); 5B.2R, […] (SEQ. ID NO. 2); the probe sequence was FAM-labeled […] (SEQ. ID NO. 3). GAPDH RNA was used as endogenous control and was amplified in the same reaction as NS5B (multiplex PCR) using primers and VIC-labeled probe recommended by the manufacturer (PE Applied Biosystem). The real-time RT-PCR reactions were run on ABI PRISM 7900HT Sequence Detection System using the following program: 48° C. for 30 minutes, 95° C. for 10 minutes, 40 cycles of 95° C. for 15 sec, 60° C. for 1 minute. The ΔCT values (CT5B-CTGAPDH) were plotted against the concentration of test compound and fitted to the sigmoid dose-response model using XLfit4 (MDL). […] Alternatively, to quantitate the absolute amount of replicon RNA, a standard curve was established by including serially diluted T7 transcripts of replicon RNA in the Taqman assay. All TaqMan® reagents were from PE Applied Biosystems. Such an assay procedure was described in detail in e.g. Malcolm et al., Antimicrobial Agents and Chemotherapy 50: 1013-1020 (2006).
(§3) Wherein gt1a_H77 was prepared as described in Yi et al., J Virol. 2004, 78(15):7904-15; gt1b_con1 was prepared as described in Lohmann et al., Science 1999, 285(5424):110-3; and gt2a_JFH was prepared as described in Kato et al., Gastroenterology. 2003, 125(6):1808-17. Chimeric replicons contain NS5A from patient isolates of genotypes 1a, 1b, 2b, 3a and 4a as indicated.

[1] = test system: HCV chimeric replicon with NS5A of genotype 2b (AB03090); assay: Cell-based HCV replicon assay (TaqMan), chimeric replicon genotype 2b (AB03090); settings: replicon RNA by TaqMan, day 3
Protocol: as §1, §2, §3

HCV replicon gt2a_JFH = assay: Cell-based HCV replicon assay (TaqMan), genotype 2a (JFH); settings: replicon 2a (JFH), replicon RNA by TaqMan, day 3
Protocol: as §1, §2, §3

[2] = test system: HCV chimeric replicon with NS5A of genotype 3a (NC00982); assay: Cell-based HCV replicon assay (TaqMan), chimeric replicon genotype 3a (NC00982); settings: replicon RNA by TaqMan, day 3
Protocol: as §1, §2, §3

[3] = test system: HCV replicon 1a (Y93H) mutant; assay: Cell-based HCV replicon assay (TaqMan), genotype 1a mutant Y93H; settings: read-out: HCV replicon EC50 1a (Y93H)
Protocol: as §1, §2, §3

[4] = test system: HCV chimeric replicon with NS5A of genotype 4a (DQ41878); assay: Cell-based HCV replicon assay (TaqMan), chimeric replicon genotype 4a (DQ41878); settings: read-out: HCV replicon EC50 4a (DQ41878)
Protocol: as §1, §2, §3

HCV replicon gt1b_con1 = assay: Cell-based HCV replicon assay (TaqMan), genotype 1b (Con1); settings: replicon 1b (Con1), replicon RNA by TaqMan, day 3
Protocol: as §1, §2, §3

[5] = test system: HCV replicon 1a (L31V) mutant; assay: Cell-based HCV replicon assay (TaqMan), genotype 1a mutant L31V; settings: read-out: HCV replicon EC50 1a (L31V)
Protocol: as §1, §2, §3

[6] = Hepatitis C virus, 72 h, read-out: HCV replicon EC50 2b (AB03090), chimeric replicon 2b (AB03090)
[7] = Hepatitis C virus, 72 h, read-out: HCV replicon EC50 3a (NC00982), chimeric replicon 3a (NC00982)
[8] = read-out: HCV replicon EC50 2b (AB03090), chimeric replicon 2b (AB03090)
[9] = read-out: HCV replicon EC50 3a (NC00982), chimeric replicon 3a (NC00982)
[10] = replicon 1a mutant Y93H, replicon RNA by TaqMan, day 3
[11] = chimeric replicon 4a (DQ41878), replicon RNA by TaqMan, day 3

Compound	EC50 (HCV replicon gt1a_H77; Hepatitis C virus, 72 h) [nM]	EC50 [1, 6] [nM]	EC50 (HCV replicon gt2a_JFH; Hepatitis C virus, 72 h) [nM]	EC50 [2, 7] [nM]	EC50 ([3]; Hepatitis C virus, 72 h) [nM]	EC50 ([4]; Hepatitis C virus, 72 h) [nM]	EC50 (HCV replicon gt1b_con1; Hepatitis C virus, 72 h) [nM]	EC50 ([5]; Hepatitis C virus, 72 h) [nM]	EC50 (HCV replicon gt1a_H77) [nM]	EC50 [1, 8] [nM]	EC50 (HCV replicon gt2a_JFH) [nM]	EC50 [2, 9] [nM]	EC50 [3, 10] [nM]	EC50 [4, 11] [nM]	EC50 (HCV replicon gt1b_con1) [nM]	EC50 ([5]; replicon 1a mutant L31V, replicon RNA by TaqMan, day 3) [nM]
COC(=O)N[C@H](C(=O)N1C[Si](C)(C)C[C@H]1c1ncc(-c2ccc(-c3ccc4c(ccc5nc([C@@H]6CC(F)(F)CN6C(=O)[C@@H](NC(=O)OC)C(C)C)[nH]c54)c3)cc2)[nH]1)C(C)C [Compound 54]	0.009	128	0.03	0.18	65	0.02	0.002	10								
COC(=O)N[C@H](C(=O)N1C[Si](C)(C)C[C@H]1c1ncc(-c2ccc(-c3ccc4c(ccc5nc([C@@H]6CC(F)(F)CN6C(=O)[C@@H](NC(=O)OC)C(C)C)[nH]c54)c3)nc2)[nH]1)C(C)C [Compound 66]	0.002	> 100	0.08	0.15	260		0.005	32								
COC(=O)N[C@H](C(=O)N1CC(F)(F)C[C@H]1c1ncc(-c2ccc(-c3ccc4c(ccc5nc([C@@H]6C[Si](C)(C)CN6C(=O)[C@@H](NC(=O)OC)C(C)C)[nH]c54)c3)cc2)[nH]1)C(C)C [Compound 92]									0.015	48	0.02	0.35	46	0.02	0.003	
COC(=O)N[C@H](C(=O)N1C[Si](C)(C)C[C@H]1c1ncc(-c2ccc(-c3ccc4c(ccc5nc([C@@H]6CC(F)(F)CN6C(=O)[C@@H](NC(=O)OC)C(C)C)[nH]c54)c3)cc2)[nH]1)C(C)C [Compound 94]									0.008	129	0.03	0.2	65	0.02	0.002	10
COC(=O)N[C@H](C(=O)N1CC[C@H](C)[C@H]1c1ncc(-c2ccc(-c3ccc4c(ccc5nc([C@@H]6C[Si](C)(C)CN6C(=O)[C@@H](NC(=O)OC)C(C)C)[nH]c54)c3)cc2)[nH]1)C(C)C [Compound 96]	0.04	49.3	0.013	0.099	51	0.936	0.004	1								
COC(=O)N[C@H](C(=O)N1C[Si](C)(C)C[C@H]1c1nc2ccc3cc(-c4ccc(-c5cnc([C@@H]6C[C@H]7C[C@H]7N6C(=O)[C@@H](NC(=O)OC)C(C)C)[nH]5)cc4)ccc3c2[nH]1)C(C)C [Compound 97]	0.005	17.1	0.005	0.09	30	0.029	0.002	15								
COC(=O)N[C@H](C(=O)N1C[Si](C)(C)C[C@H]1c1nc2ccc3cc(-c4ccc(-c5cnc([C@@H]6[C@@H]7C[C@@H]([C@@H](F)[C@H]7F)N6C(=O)[C@@H](NC(=O)OC6(C)CC6)C(C)C)[nH]5)cc4)ccc3c2[nH]1)C(C)C [Compound 101]	> 1		> 10	54.6	> 1000	> 100	0.023	> 1000								
COC(=O)N[C@H](C(=O)N1C[Si](C)(C)C[C@H]1c1ncc(-c2ccc(-c3ccc4c(ccc5nc([C@H]6[C@@H]7C[C@@H]([C@@H](F)[C@H]7F)N6C(=O)[C@@H](NC(=O)OC)C(C)C)[nH]c54)c3)cc2)[nH]1)C(C)C [Compound 102]	0.084		0.097	7.5	438	0.3	< 2	113								
COC(=O)N[C@H](C(=O)N1CC(F)(F)C[C@H]1c1nc2ccc3cc(-c4ccc(-c5cnc([C@@H]6C[Si](C)(C)CN6C(=O)[C@@H](NC(=O)OC)C6CC6)[nH]5)cc4)ccc3c2[nH]1)C(C)C [Compound 105]	0.021		0.141	0.17	151	0.18	0.003	43								
COC(=O)N[C@@H](C)C(=O)N1C[Si](C)(C)C[C@H]1c1ncc(-c2ccc(-c3ccc4c(ccc5nc([C@@H]6CC(F)(F)CN6C(=O)[C@@H](NC(=O)OC)C(C)C)[nH]c54)c3)cc2)[nH]1 [Compound 106]	0.016		0.046	0.435	52.6	0.429	0.006	37.1								
